Assay [1] deals with flexible GA-rich RNA, 5'-U(GAAG)2GU (RNA, single strand) UGAAGGAAGGU
The experiment in a line: fluorescence polarization. Conditions: Na+ 50 mM; 25 mM MES pH 6.1, 0.002% Triton X, 25 °C; ligand fluorescence.

Assay [2] shares this test system. The experiment in a line: fluorescence polarization (intrinsic ligand fluorescence). The note with it: Na+ 50 mM; 25 mM MES, 0.002% Triton X, pH 6.1, 25 °C, 0.1 μM ligand. A general note: In fluorescence polarisation assays a small probe gives low polarisation when free and higher when bound to something large.

Usually Kd stands for the concentration at which binding is half-saturated. Higher therefore signals weaker binding. In turn, `Cc1cn2cc(-c3cc4ccc(N5CCN(CC6CCOCC6)[C@@H](C)C5)cc4oc3=O)cc(F)c2n1` had a Kd in assay [1] of 12.0 ± 0.4 µM.
Still for that read-out and setting: under `O=c1oc2cc(N3CCNCC3)ccc2cc1-c1ccc2ccccc2c1` stands 34.1 ± 0.6 µM.
With `COc1ccn2cc(-c3cc4ccc(N5CCNCC5)cc4oc3=O)nc2c1`, the Kd in assay [2] amounted to 10.7 ± 0.1 µM.
The molecule `Cc1cn2cc(-c3cc4ccc(N5CC6CCCNC6C5)cc4oc3=O)cc(F)c2n1` (centres unmarked) yielded a Kd in assay [1] of 13.5 ± 2.0 µM.
In turn, `Cc1cn2cc(-c3cc4ccc(N5CC6CC(C5)N6)cc4oc3=O)cc(F)c2n1` returned a dissociation constant Kd in assay [1] of 10.7 ± 0.9 µM.
In assay [1], `C[C@H]1CN(c2ccc3cc(-c4cc(F)c5nn(C)cc5c4)c(=O)oc3c2)CCN1` returned a Kd of 12.6 ± 0.4 µM.
On to `O=c1oc2cc(N3CCNCC3)ccc2cc1-c1cn2ccccc2n1`, for which the Kd in assay [2] was determined as 14.5 ± 1.3 µM.
`O=c1oc2cc(N3CCNCC3)ccc2cc1-c1cn2ccc(C(F)(F)F)cc2n1` displayed a Kd in assay [2] of 21.8 ± 0.2 µM.
Consider `Cc1cn2cc(-c3nc4sc(N5CCN(C)CC5)cc4s3)cc(F)c2n1`, for which the Kd in assay [2] was found to be 35.7 ± 0.01 µM.
On the same count and under the same terms, the figure for `Cc1nc2c(F)cc(-c3cc4ccc(N5CCN[C@@H](C)C5)cc4oc3=O)cc2o1` is > 100 µM.
`Cc1nccn2cc(-c3cc4ccc(N5CCN[C@@H](C)C5)cc4oc3=O)nc12` showed a Kd in assay [1] of 39.9 ± 11.5 µM.
In assay [1], `CNC1CCN(c2ccc3cc(-c4cc(F)c5nc(C)cn5c4)c(=O)oc3c2)CC1` had a Kd of 16.7 ± 0.5 µM. Against the preceding molecule, the Kd is about 2.4-fold lower.
`O=c1oc2cc(N3CCNCC3)ccc2cc1-c1cn2ccc(Cl)cc2n1` registered a Kd in assay [2] of 25.9 ± 6.0 µM. That is a double-digit micromolar value.
Turning to `Cc1cn2cc(-c3cc4ccc(N5CCN(C)CC5)cc4oc3=O)nc2c(C)n1`, the Kd in assay [1] turned out to be 40.4 ± 6.5 µM.
Still for that read-out and setting: under `CNC1CCN(c2ccc3cc(-c4cc(F)c5nc(C)cn5c4)c(=O)oc3c2)C1` (centres unmarked) stands 19.3 ± 2.3 µM.
Take `Cc1cn2cc(-c3cc4ccc(N5CC6CCC(C5)N6)cc4oc3=O)cc(F)c2n1`: the equilibrium dissociation constant (Kd) in assay [2] turned out to be 71.0 ± 2.3 µM.
On to `Cc1cn2cc(-c3cc4ccc(N5CCN[C@@H](C)C5)cc4n4cnnc34)cc(F)c2n1`, for which, in assay [1], the Kd was 16.4 ± 1.1 µM.
In assay [2], `COc1c(N2CCN[C@@H](C)C2)ccc2cc(-c3cc(F)c4nc(C)cn4c3)c(=O)n(C)c12` registered a Kd of 22.1 ± 2.7 µM.
In the case of `Cc1cn2cc(-c3nc4ccc(N5CCN[C@@H](C)C5)cc4s3)c(F)cc2n1`, the Kd in assay [2] is 38.9 ± 6.6 µM.
Take `Cc1cn2cc(-c3cc4ccc(N5CCN(C)CC5)cc4oc3=O)cc(F)c2n1`: the Kd in assay [1] stood at 10.88 ± 0.3 µM.
`Cc1cn2cc(-c3cc4ccc(N5CCN[C@@H](C)C5)c(C)c4oc3=O)cc(F)c2n1` returned a Kd in assay [1] of 11.1 ± 2.8 µM.
For the molecule `Cc1cn2cc(-c3cc4ccc(NC5CNC5)cc4oc3=O)cc(F)c2n1`, the Kd in assay [1] came to 15.6 ± 0.7 µM.
On the same count and under the same terms, the figure for `Cc1cn2cc(-c3cc4c(C)cc(N5CCN[C@@H](C)C5)cc4oc3=O)cc(F)c2n1` is 19.3 ± 0.9 µM; for `C[C@H]1CN(c2ccc3cc(-c4cc(F)c5c(cnn5C)c4)c(=O)oc3c2)CCN1` it is 11.6 ± 0.01 µM.
For the molecule `Cc1cn2cc(-c3cc4ccc(N5CCN[C@@H](C)C5)cc4[nH]c3=O)cc(F)c2n1`, in assay [1], the Kd is 33.3 ± 1.3 µM.
On the same count and under the same terms, under `O=c1oc2cc(N3CCNCC3)ccc2cc1-c1ccc2ncccc2c1` stands 17.8 ± 3.9 µM; under `Cc1cn2cc(-c3cc4ccc(N5CCN[C@@H](CO)C5)cc4oc3=O)cc(F)c2n1`, 11.9 ± 0.9 µM.
In assay [2], `CCN1CCN(c2ccc3cc(-c4cn5cc(C)nc(C)c5n4)c(=O)oc3c2)C[C@@H]1C` had a Kd of 14.1 ± 0.9 µM.
Consider `Cc1cn2cc(-c3cc4ccc(N5CCN[C@@H](C)C5)cc4n(CCO)c3=O)cc(F)c2n1`, for which, in assay [1], the Kd is 40.1 ± 5.2 µM.
Turning to `CN1CCN(c2cc(F)c3cc(-c4ccc(Cl)cc4)c(=O)oc3c2)CC1`, the Kd in assay [1] was found to be 42.8 ± 2.7 µM.
Molecule `Cc1cn2cc(-c3cc4ccc(N5CC6(CNC6)C5)cc4oc3=O)cc(F)c2n1` came in with a Kd in assay [1] of 32.0 ± 2.1 µM.
Take `COc1cn2cc(-c3cc4ccc(N5CCNCC5)cc4oc3=O)nc2cn1`: in assay [1], the Kd came out at 39.6 ± 0.4 µM. The Kd values of the last two molecules are within 1.5-fold of each other.
In assay [2], `COc1ccc2nc(-c3cc4ccc(N5CCNCC5)cc4oc3=O)cn2c1` had a Kd of 29.7 ± 3.0 µM. That is a double-digit micromolar value.
The molecule `CCN1CCN(c2ccc3cc(-c4cc(F)c5nc(C)cn5c4)c(=O)oc3c2)C[C@@H]1C` displayed a Kd in assay [2] of 3.06 ± 0.3 µM.
For `CCn1c(=O)c(-c2cc(F)c3nc(C)cn3c2)cc2ccc(N3CCN[C@@H](C)C3)cc21`, the Kd in assay [1] was 39.7 ± 11.5 µM.
`Cc1cn2cc(-c3cc4ccc(N5CCN[C@@H](C)C5)cc4n(-c4ccccc4)c3=O)cc(F)c2n1` yielded a Kd in assay [2] of 78.1 ± 9.7 µM.
For `Cc1cn2cc(-c3cc4ccc(N5CCN[C@@H](C)C5)cc4oc3=O)cc(F)c2n1`, in assay [1], the dissociation constant (Kd) was 14.3 ± 1.1 µM.
In turn, `Cc1cn2cc(-c3cc4ccc(N5CC6CNCC6C5)cc4oc3=O)cc(F)c2n1` (centres unmarked) registered a Kd in assay [1] of 18.2 ± 1.9 µM.
In turn, `Cc1cn2cc(-c3cc4ccc(N5CCN(CC6CC6)[C@@H](C)C5)cc4oc3=O)cc(F)c2n1` yielded a Kd in assay [2] of 2.7 ± 0.1 µM.
The molecule `Cc1cn2cc(-c3cc4ccc(N5CCN[C@@H](C)C5)cc4n(CC4CC4)c3=O)cc(F)c2n1` yielded a Kd in assay [1] of 42.6 ± 15.2 µM.
The same measure, in the same setting: under `CN1CCN(c2ccc3cc(-c4ccc(Cl)cc4)c(=O)oc3c2)CC1` stands 37.2 ± 1.0 µM.

(Values after publication PMC12188297 (2025).)
